From patent publication US20230322761A1, “DEGRADATION OF BRUTON'S TYROSINE KINASE (BTK) BY CONJUGATION OF BTK INHIBITORS WITH E3 LIGASE LIGAND AND METHODS OF USE” (BEIGENE, LTD., priority 2020, published 2023)
Where a name gives a salt, the structure may show the parent alone.

target: T1, BTK (Homo sapiens, UniProt Q06187); assay: BTK degradation in TMD-8 cells, HTRF assay after 6 h treatment; type: cell-based; conditions: IC50 (DC50) of BTK degradation
T1 construct: endogenous in cells; host or cells: TMD-8 cells
T1 sequence (Q06187 whole entry): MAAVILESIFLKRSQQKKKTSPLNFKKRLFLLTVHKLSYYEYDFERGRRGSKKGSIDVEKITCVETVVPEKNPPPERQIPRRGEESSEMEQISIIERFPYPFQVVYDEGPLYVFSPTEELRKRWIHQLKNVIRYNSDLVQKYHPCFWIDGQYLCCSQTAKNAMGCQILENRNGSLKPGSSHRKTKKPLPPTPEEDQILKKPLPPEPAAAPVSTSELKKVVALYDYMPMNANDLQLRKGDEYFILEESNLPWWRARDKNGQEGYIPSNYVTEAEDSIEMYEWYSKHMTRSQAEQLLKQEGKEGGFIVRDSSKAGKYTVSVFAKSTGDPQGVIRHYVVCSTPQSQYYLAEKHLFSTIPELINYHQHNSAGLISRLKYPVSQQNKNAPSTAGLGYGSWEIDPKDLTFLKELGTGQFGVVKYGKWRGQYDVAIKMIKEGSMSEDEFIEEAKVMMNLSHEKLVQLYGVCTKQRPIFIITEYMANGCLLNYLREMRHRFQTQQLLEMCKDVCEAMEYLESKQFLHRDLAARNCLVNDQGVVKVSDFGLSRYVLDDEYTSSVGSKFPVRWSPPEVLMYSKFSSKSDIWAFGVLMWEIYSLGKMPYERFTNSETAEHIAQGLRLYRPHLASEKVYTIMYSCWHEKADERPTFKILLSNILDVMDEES
In short: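 Remaining BTK was quantified by HTRF in lysates of TMD-8 cells after 6 h exposure to an 8-point, 6-fold compound series (500× stocks in DMSO starting at 1 mM; 0.2% DMSO). Lysis 30 min, antibodies overnight at room temperature, ratio read at 665/620 nm; DC50 fitted with a four-parameter logistic equation.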

SMILES | DC50
Cc1nc(CCN2CCN(c3ccc(-c4cnc5[nH]nc(-c6ccc([C@@H](C)NC(=O)c7noc(C(C)(C)C)n7)c(CO)c6)c5c4)cc3)CC2)ccc1C1CCC(=O)NC1=O (stereo partly drawn) [Example 167, 5-(tert-butyl)-N-((1R)-1-(4-(5-(4-(4-(2-(5-(2,6-dioxopiperidin-3-yl)-6-methylpyridin-2-yl)ethyl)piperazin-1-yl)phenyl)-1H-pyrazolo[3,4-b]pyridin-3-yl)-2-(hydroxymethyl)phenyl)ethyl)-1,2,4-oxadiazole-3-carboxamide] | 4.13 nM
Cc1cc(-c2n[nH]c3ncc(-c4ccc(N5CC6CC5CN6CCc5ccc(C6CCC(=O)NC6=O)c(C)n5)cn4)cc23)ccc1[C@@H](C)NC(=O)c1noc(C(C)(C)C)n1 (stereo partly drawn) [Example 170, 5-(tert-butyl)-N-((1R)-1-(4-(5-(5-(5-(2-(5-(2,6-dioxopiperidin-3-yl)-6-methylpyridin-2-yl)ethyl)-2,5-diazabicyclo[2.2.1]heptan-2-yl)pyridin-2-yl)-1H-pyrazolo[3,4-b]pyridin-3-yl)-2-methylphenyl)ethyl)-1,2,4-oxadiazole-3-carboxamide] | 4.77 nM
Cc1cc(-c2n[nH]c3ncc(-c4ccc(N5CCN(CC6CCN(c7ccc(N8CCC(=O)NC8=O)c(C)c7)CC6)CC5)cc4)cc23)ccc1[C@@H](C)NC(=O)c1cc(C(C)(C)C)on1 [Example 172, (R)-5-(tert-butyl)-N-(1-(4-(5-(4-(4-((1-(4-(2,4-dioxotetrahydropyrimidin-1(2H)-yl)-3-methylphenyl)piperidin-4-yl)methyl)piperazin-1-yl)phenyl)-1H-pyrazolo[3,4-b]pyridin-3-yl)-2-methylphenyl)ethyl)isoxazole-3-carboxamide] | 20.8 nM
Cc1cc(CCN2CC3CC2CN3c2ccc(-c3cnc4[nH]nc(-c5ccc([C@@H](C)NC(=O)c6noc(C(C)(C)C)n6)c(C)c5)c4c3)nc2)ncc1C1CCC(=O)NC1=O (stereo partly drawn) [Example 173, 5-(tert-butyl)-N-((1R)-1-(4-(5-(5-(5-(2-(5-(2,6-dioxopiperidin-3-yl)-4-methylpyridin-2-yl)ethyl)-2,5-diazabicyclo[2.2.1]heptan-2-yl)pyridin-2-yl)-1H-pyrazolo[3,4-b]pyridin-3-yl)-2-methylphenyl)ethyl)-1,2,4-oxadiazole-3-carboxamide] | > 2000 nM
Cc1cc(-c2n[nH]c3ncc(-c4ccc(N5CC6CN(CCc7ccc(C8CCC(=O)NC8=O)cc7)CC6C5)cn4)cc23)ccc1[C@@H](C)NC(=O)c1noc(C(C)(C)C)n1 (stereo partly drawn) [Example 174, 5-(tert-butyl)-N-((1R)-1-(4-(5-(5-(5-(4-(2,6-dioxopiperidin-3-yl)phenethyl)hexahydropyrrolo[3,4-c]pyrrol-2(1H)-yl)pyridin-2-yl)-1H-pyrazolo[3,4-b]pyridin-3-yl)-2-methylphenyl)ethyl)-1,2,4-oxadiazole-3-carboxamide] | 1.68 nM
Cc1nc(CCN2CCN(c3ccc(-c4cnc5[nH]nc(-c6ccc([C@@H](C)NC(=O)c7nc(C(C)(C)C)no7)c(CO)c6)c5c4)cc3)CC2)ccc1C1CCC(=O)NC1=O (stereo partly drawn) [Example 177, 3-(tert-butyl)-N-((1R)-1-(4-(5-(4-(4-(2-(5-(2,6-dioxopiperidin-3-yl)-6-methylpyridin-2-yl)ethyl)piperazin-1-yl)phenyl)-1H-pyrazolo[3,4-b]pyridin-3-yl)-2-(hydroxymethyl)phenyl)ethyl)-1,2,4-oxadiazole-5-carboxamide] | 3.47 nM
Cc1cc(N2CCC(CN3CCN(c4ccc(-c5cnc6[nH]nc(-c7ccc([C@@H](C)NC(=O)c8noc(C(C)(C)C)n8)c(CO)c7)c6c5)cn4)CC3)CC2)ccc1N1CCC(=O)NC1=O [Example 179, (R)-5-(tert-butyl)-N-(1-(4-(5-(6-(4-((1-(4-(2,4-dioxotetrahydropyrimidin-1(2H)-yl)-3-methylphenyl)piperidin-4-yl)methyl)piperazin-1-yl)pyridin-3-yl)-1H-pyrazolo[3,4-b]pyridin-3-yl)-2-(hydroxymethyl)phenyl)ethyl)-1,2,4-oxadiazole-3-carboxamide] | 6.28 nM
Cc1cc(-c2n[nH]c3ncc(-c4ccc(N5CCN(C6CCN(c7ccc(NC8CCC(=O)NC8=O)cc7)CC6)CC5)cc4)cc23)ccc1[C@@H](C)NC(=O)c1noc(C(C)(C)C)n1 (stereo partly drawn) [Example 180, 5-(tert-butyl)-N-((1R)-1-(4-(5-(4-(4-(1-(4-((2,6-dioxopiperidin-3-yl)amino)phenyl)piperidin-4-yl)piperazin-1-yl)phenyl)-1H-pyrazolo[3,4-b]pyridin-3-yl)-2-methylphenyl)ethyl)-1,2,4-oxadiazole-3-carboxamide] | 4.81 nM
Cc1cc(-c2n[nH]c3ncc(-c4ccc(N5CCN(CCc6ccc([C@H]7CCC(=O)NC7=O)c(F)c6)CC5)cn4)cc23)ccc1[C@@H](C)NC(=O)c1noc(C(C)(C)C)n1 [Example 181, 5-(tert-butyl)-N—((R)-1-(4-(5-(5-(4-(4-((R)-2,6-dioxopiperidin-3-yl)-3-fluorophenethyl)piperazin-1-yl)pyridin-2-yl)-1H-pyrazolo[3,4-b]pyridin-3-yl)-2-methylphenyl)ethyl)-1,2,4-oxadiazole-3-carboxamide] | 1.24 nM
Cc1cc(-c2n[nH]c3ncc(-c4ccc(N5CCN(CCc6ccc([C@@H]7CCC(=O)NC7=O)c(F)c6)CC5)cn4)cc23)ccc1[C@@H](C)NC(=O)c1noc(C(C)(C)C)n1 [Example 182, 5-(tert-butyl)-N—((R)-1-(4-(5-(5-(4-(4-((S)-2,6-dioxopiperidin-3-yl)-3-fluorophenethyl)piperazin-1-yl)pyridin-2-yl)-1H-pyrazolo[3,4-b]pyridin-3-yl)-2-methylphenyl)ethyl)-1,2,4-oxadiazole-3-carboxamide] | 11.8 nM
Cc1cc(-c2n[nH]c3ncc(-c4ccc(N5CCC(COc6ccc(C7CCC(=O)NC7=O)cc6)CC5)cc4)cc23)ccc1[C@@H](C)NC(=O)c1noc(C(C)(C)C)n1 (stereo partly drawn) [Example 183, 5-(tert-butyl)-N-((1R)-1-(4-(5-(4-(4-((4-(2,6-dioxopiperidin-3-yl)phenoxy)methyl)piperidin-1-yl)phenyl)-1H-pyrazolo[3,4-b]pyridin-3-yl)-2-methylphenyl)ethyl)-1,2,4-oxadiazole-3-carboxamide] | 19.8 nM

The remaining lines, values ahead:

DC50 | SMILES
15.6 nM | Cc1cc(N2CCC(CCN3CCN(c4ccc(-c5cnc6[nH]nc(-c7ccc([C@@H](C)NC(=O)c8noc(C(C)(C)C)n8)c(C)c7)c6c5)cc4)CC3)CC2)ccc1C1CCC(=O)NC1=O (stereo partly drawn) [Example 168, 5-(tert-butyl)-N-((1R)-1-(4-(5-(4-(4-(2-(1-(4-(2,6-dioxopiperidin-3-yl)-3-methylphenyl)piperidin-4-yl)ethyl)piperazin-1-yl)phenyl)-1H-pyrazolo[3,4-b]pyridin-3-yl)-2-methylphenyl)ethyl)-1,2,4-oxadiazole-3-carboxamide]
15.1 nM | COc1cc(N2CCC(CCN3CCN(c4ccc(-c5cnc6[nH]nc(-c7ccc([C@@H](C)NC(=O)c8noc(C(C)(C)C)n8)c(C)c7)c6c5)cc4)CC3)CC2)ccc1C1CCC(=O)NC1=O (stereo partly drawn) [Example 169, 5-(tert-butyl)-N-((1R)-1-(4-(5-(4-(4-(2-(1-(4-(2,6-dioxopiperidin-3-yl)-3-methoxyphenyl)piperidin-4-yl)ethyl)piperazin-1-yl)phenyl)-1H-pyrazolo[3,4-b]pyridin-3-yl)-2-methylphenyl)ethyl)-1,2,4-oxadiazole-3-carboxamide]
3.52 nM | COc1cc(N2CCC(=O)NC2=O)ccc1N1CCC(CN2CCN(c3ccc(-c4cnc5[nH]nc(-c6ccc([C@@H](C)NC(=O)c7noc(C(C)(C)C)n7)c(C)c6)c5c4)cc3)CC2)CC1 [Example 171, (R)-5-(tert-butyl)-N-(1-(4-(5-(4-(4-((1-(4-(2,4-dioxotetrahydropyrimidin-1(2H)-yl)-2-methoxyphenyl)piperidin-4-yl)methyl)piperazin-1-yl)phenyl)-1H-pyrazolo[3,4-b]pyridin-3-yl)-2-methylphenyl)ethyl)-1,2,4-oxadiazole-3-carboxamide]
8.39 nM | Cc1cc(-c2n[nH]c3ncc(-c4ccc(N5CCN(CC(F)(F)c6ccc(C7CCC(=O)NC7=O)cc6)CC5)cc4)cc23)ccc1[C@@H](C)NC(=O)c1noc(C(C)(C)C)n1 (stereo partly drawn) [Example 175, 5-(tert-butyl)-N-((1R)-1-(4-(5-(4-(4-(2-(4-(2,6-dioxopiperidin-3-yl)phenyl)-2,2-difluoroethyl)piperazin-1-yl)phenyl)-1H-pyrazolo[3,4-b]pyridin-3-yl)-2-methylphenyl)ethyl)-1,2,4-oxadiazole-3-carboxamide]
6.81 nM | C[C@@H](NC(=O)c1noc(C(C)(C)C)n1)c1ccc(-c2n[nH]c3ncc(-c4ccc(N5CCN(CC6CCN(c7ccc(N8CCC(=O)NC8=O)cc7)CC6)CC5)nc4)cc23)cc1CO [Example 178, (R)-5-(tert-butyl)-N-(1-(4-(5-(6-(4-((1-(4-(2,4-dioxotetrahydropyrimidin-1(2H)-yl)phenyl)piperidin-4-yl)methyl)piperazin-1-yl)pyridin-3-yl)-1H-pyrazolo[3,4-b]pyridin-3-yl)-2-(hydroxymethyl)phenyl)ethyl)-1,2,4-oxadiazole-3-carboxamide]
14 nM | Cc1cc(-c2n[nH]c3ncc(-c4ccc(N5CCN(CC6CCN(c7ccc(N8CCC(=O)NC8=O)cc7)CC6)CC5)cc4)cc23)ccc1[C@@H](C)NC(=O)c1noc(C2(CO)CC2)n1 [Example 184, (R)—N-(1-(4-(5-(4-(4-((1-(4-(2,4-dioxotetrahydropyrimidin-1(2H)-yl)phenyl)piperidin-4-yl)methyl)piperazin-1-yl)phenyl)-1H-pyrazolo[3,4-b]pyridin-3-yl)-2-methylphenyl)ethyl)-5-(1-(hydroxymethyl)cyclopropyl)-1,2,4-oxadiazole-3-carboxamide]

same assay, conditions: IC50 (DC50) of BTK degradation, formate

DC50 | SMILES
1.89 nM | Cc1cc(-c2n[nH]c3ncc(-c4ccc(N5CCN(C6CC(c7ccc(C8CCC(=O)NC8=O)cc7)C6)CC5)cc4)cc23)ccc1[C@@H](C)NC(=O)c1noc(C(C)(C)C)n1 (stereo partly drawn) [Example 176, 5-(tert-butyl)-N-((1R)-1-(4-(5-(4-(4-(3-(4-(2,6-dioxopiperidin-3-yl)phenyl)cyclobutyl)piperazin-1-yl)phenyl)-1H-pyrazolo[3,4-b]pyridin-3-yl)-2-methylphenyl)ethyl)-1,2,4-oxadiazole-3-carboxamide formate]
